For experiment [1], the system named is A-431. As to the kind of experiment: Antiproliferative activity against human A-431 cells harboring wildtype EGFR assessed as cell growth inhibition incubated for 72 hrs by CellTiter Glo assay. The format is functional. A general note: ATP-based viability assays read luminescence as a measure of living cells.
For experiment [2], the system named is PC-9. As to the kind of experiment: Antiproliferative activity against human PC-9 cells harboring EGFR del19 mutant assessed as cell growth inhibition incubated for 72 hrs by CellTiter Glo assay. The settings on record: Homo sapiens, PC-9. It is filed as functional.
Experiment [3] has as its system HCC827. As to the kind of experiment: Antiproliferative activity against human HCC827 cells harboring EGFR del19 mutant assessed as cell growth inhibition incubated for 72 hrs by CellTiter Glo assay. It is filed as functional. Particulars: Homo sapiens, HCC827.
Experiment [4] has as its system NCI-H1975. Nature of the experiment: Antiproliferative activity against human NCI-H1975 cells harboring EGFR L858R/T790M mutant assessed as cell growth inhibition incubated for 72 hrs by CellTiter Glo assay. The format is functional. Particulars: Homo sapiens, NCI-H1975.
Experiment [5] deals with Epidermal growth factor receptor (Homo sapiens, UniProt P00533). As to the kind of experiment: Inhibition of wildtype EGFR (unknown origin) incubated for 60 mins in presence of ATP by biochemical enzymatic assay.
Experiment [6] concerns the target Epidermal growth factor receptor (Homo sapiens, UniProt P00533, L858R/T790M). As to the kind of experiment: Inhibition of GST-tagged recombinant human EGFR T790M/L858R mutant (668 to 1210 residues) expressed in Insect cells incubated for 60 mins in presence of ATP by biochemical enzymatic assay. The arrangement: species or system Insect cell.

Chain of Epidermal growth factor receptor (Homo sapiens, UniProt P00533) (P00533 whole entry, the tested form may be a part): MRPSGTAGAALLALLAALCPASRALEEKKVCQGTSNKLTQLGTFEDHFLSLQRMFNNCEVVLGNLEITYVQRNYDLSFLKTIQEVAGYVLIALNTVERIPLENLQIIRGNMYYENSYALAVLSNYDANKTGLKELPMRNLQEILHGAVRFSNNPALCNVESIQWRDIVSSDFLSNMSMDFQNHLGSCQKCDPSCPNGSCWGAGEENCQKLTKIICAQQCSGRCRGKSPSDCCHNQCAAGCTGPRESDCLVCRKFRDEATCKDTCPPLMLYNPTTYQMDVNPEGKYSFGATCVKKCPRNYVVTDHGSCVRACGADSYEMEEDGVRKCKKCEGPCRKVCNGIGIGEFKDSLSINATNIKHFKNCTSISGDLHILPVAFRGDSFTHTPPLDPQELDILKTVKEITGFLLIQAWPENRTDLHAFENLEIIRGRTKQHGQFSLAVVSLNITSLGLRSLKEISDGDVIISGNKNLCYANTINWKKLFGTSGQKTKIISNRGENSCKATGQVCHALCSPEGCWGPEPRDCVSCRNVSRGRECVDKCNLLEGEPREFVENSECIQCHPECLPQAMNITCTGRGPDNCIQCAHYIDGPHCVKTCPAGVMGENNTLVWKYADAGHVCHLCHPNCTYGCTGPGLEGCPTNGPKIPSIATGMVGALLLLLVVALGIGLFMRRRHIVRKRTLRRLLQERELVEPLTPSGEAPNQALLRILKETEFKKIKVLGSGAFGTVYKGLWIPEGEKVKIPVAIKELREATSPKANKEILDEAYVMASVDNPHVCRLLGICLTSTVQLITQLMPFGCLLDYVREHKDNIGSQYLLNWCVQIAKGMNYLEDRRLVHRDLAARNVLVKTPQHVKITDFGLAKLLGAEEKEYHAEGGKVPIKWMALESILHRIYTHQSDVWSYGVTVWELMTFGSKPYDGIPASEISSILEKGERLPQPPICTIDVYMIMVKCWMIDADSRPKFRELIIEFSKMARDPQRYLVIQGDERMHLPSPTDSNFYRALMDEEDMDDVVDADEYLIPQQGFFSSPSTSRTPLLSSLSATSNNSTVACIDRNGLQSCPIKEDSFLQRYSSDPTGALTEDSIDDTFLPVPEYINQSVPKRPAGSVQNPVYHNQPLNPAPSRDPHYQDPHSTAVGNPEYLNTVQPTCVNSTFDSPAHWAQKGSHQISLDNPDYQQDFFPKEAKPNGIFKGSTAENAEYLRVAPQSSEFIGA

One may read the GI50 as the concentration at which growth is held to half of that of the control. As for `C=CC(=O)Nc1cc(Nc2nccc(-c3cnc4c(Cl)cccn34)n2)c(OC)cc1N(C)CCN(C)C`, the GI50 came to 495 nM in experiment [1], 7.3 nM in experiment [2], 5.6 nM in experiment [3] and 103 nM in experiment [4].
What is called IC50 is the midpoint of a concentration-inhibition curve. For the compound `C=CC(=O)Nc1cc(Nc2nccc(-c3cnc4c(C)cccn34)n2)c(OC)cc1N(C)CCN1CCOCC1`, the values for the IC50 in experiment [5] and in experiment [6] were 212 nM and 1.59 nM, respectively.
For `C=CC(=O)Nc1cc(Nc2nccc(-c3cnc4c(OC)cccn34)n2)c(OC)cc1N(C)CCN(C)C` the same measures were 16.3 nM and 1.65 nM.
The corresponding values for `C=CC(=O)Nc1cc(Nc2nccc(-c3nc(C)c4ccccn34)n2)c(OC)cc1N(C)CCN(C)C` are 21.3 nM and 1.86 nM.
The corresponding values for `C=CC(=O)Nc1cc(Nc2nccc(-c3cnn4c(C)cccc34)n2)c(OC)cc1N(C)CCN(C)C` are 16.6 nM and 1.41 nM.
As to `CC#CC(=O)Nc1cc(Nc2nccc(-c3ncc4c(C)cccn34)n2)c(OC)cc1N(C)CCN(C)C`, the IC50 in experiment [5] came out at 49.1 nM; in experiment [6], 1.38 nM.
For `C=CC(=O)Nc1cc(Nc2nccc(-c3ccc4c(C)nccn34)n2)c(OC)cc1N(C)CCN(C)C` the same measures were 26 nM and 1.52 nM.
On to `C=CC(=O)Nc1cc(Nc2nccc(-c3ncn4c(C)cccc34)n2)c(OC)cc1N(C)CCN(C)C`, for which the 50% inhibitory concentration (IC50) amounted to 963 nM in experiment [5] and 22.4 nM in experiment [6].
